# Measurements reported in patent US8952024B2, “Herbicidal pyrimidone derivatives” (E I du Pont de Nemours and Company, priority 2009, dated 2015).
# Tests used:
# Format in all cases: in vivo
# [1] = tested on: barnyardgrass (Echinochloa crus-galli); assay: Test A pre-/postemergence plant response
# Outline: (§1)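 Both pre- and postemergence treatments are applied simultaneously, using chemicals formulated in a non-phytotoxic solvent mixture with surfactant. Postemergence plants are 2–10 cm high with one to two leaves. After approximately ten days in a greenhouse, injury is scored visually from 0 (none) to 100 (complete control) relative to untreated plants.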
# [2] = tested on: pigweed (Amaranthus retroflexus); assay: Test A pre-/postemergence plant response
# Outline: as §1
# [3] = tested on: Italian ryegrass (Lolium multiflorum); assay: Test B pre-/postemergence plant response
# Outline: (§2)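 Visual injury, 0–100 scale (100 = complete control), rated against controls after 13 to 15 days in greenhouse. Pre-emergence: seeds in loam/sand soil, treated at planting. Post-emergence: 1- to 4-leaf plants (2 to 18 cm) in peat/vermiculite medium. Compounds formulated in non-phytotoxic solvent with surfactant.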
# [4] = tested on: Surinam grass (Brachiaria decumbens); assay: Test B pre-/postemergence plant response
# Outline: as §2
# [5] = tested on: blackgrass (Alopecurus myosuroides); assay: Test B pre-/postemergence plant response
# Outline: as §2
# [6] = tested on: downy bromegrass (Bromus tectorum); assay: Test B pre-/postemergence plant response
# Outline: as §2
# [7] = tested on: goosegrass (Eleusine indica); assay: Test B pre-/postemergence plant response
# Outline: as §2
# [8] = tested on: large crabgrass (Digitaria sanguinalis); assay: Test B pre-/postemergence plant response
# Outline: as §2
# [9] = tested on: morningglory (Ipomoea coccinea); assay: Test B pre-/postemergence plant response
# Outline: as §2
# [10] = tested on: velvetleaf (Abutilon theophrasti); assay: Test B pre-/postemergence plant response
# Outline: as §2
# [11] = tested on: wheat (Triticum aestivum); assay: Test B pre-/postemergence plant response
# Outline: as §2
# [12] = tested on: woolly cupgrass (Eriochloa villosa); assay: Test B pre-/postemergence plant response
# Outline: as §2
# [13] = tested on: yellow nutsedge (Cyperus esculentus); assay: Test B pre-/postemergence plant response
# Outline: as §2
# [14] = Postemergence, 125 g ai/ha, visual injury, 0 to 100 scale (0 no effect, 100 complete control), approx. ten days
# [15] = Postemergence, 500 g ai/ha, 0 to 100 scale, 0 = no effect, 100 = complete control, approx. ten days
# [16] = Preemergence, 125 g ai/ha, 0 to 100 scale, 0 = no effect, 100 = complete control
# [17] = Preemergence, 500 g ai/ha, visual injury, 0 to 100 scale (0 no effect, 100 complete control), approx. ten days
# [18] = 16 g ai/ha, Postemergence, 0 to 100 scale
# [19] = 31 g ai/ha, postemergence, scale 0 to 100, 0 is no effect, 100 is complete control
# [20] = 62 g ai/ha, postemergence, 0 is no effect, 100 is complete control, 13 to 15 days
# [21] = Postemergence, 125 g ai/ha, visual rating after 13 to 15 days, scale 0 (no effect) to 100 (complete control)
# [22] = Preemergence, 31 g ai/ha, scale 0 to 100 (0 no effect, 100 complete control)
# [23] = Preemergence, 62 g ai/ha, scale 0 to 100, 0 no effect, 100 complete control
# [24] = Preemergence, 125 g ai/ha, scale 0 to 100, 0 no effect, 100 complete control
# [25] = Preemergence, 16 g ai/ha, scale 0 to 100, 0 no effect, 100 complete control
compound,measurement,setting,value
O=C1CCCC(O)=C1C(=O)c1cnc(-c2cccc(Br)c2)n(-c2ccccc2)c1=O [Compound 69],Barnyardgrass plant response rating,[1]; [14],90
same,"Plant response rating, Barnyardgrass",[1]; [15],100
same,"Plant response rating, Barnyardgrass",[1]; [16],10
same,"Plant response rating, Barnyardgrass",[1]; [17],60
same,Pigweed plant response rating,[2]; [14],100
same,"Plant response rating, Pigweed",[2]; [15],100
same,"Plant response rating, Pigweed",[2]; [16],100
same,"Plant response rating, Pigweed",[2]; [17],100
same,"Plant response rating, Ryegrass, Italian",[3]; [18],0
same,"Plant response rating, Ryegrass, Italian",[3]; [19],30
same,"Ryegrass, Italian plant response rating (0 to 100 scale)",[3]; [20],50
same,"Plant response rating, Ryegrass, Italian",[3]; [21],50
same,"Plant response rating, Ryegrass, Italian",[3]; [22],0
same,"Plant response rating, Ryegrass, Italian",[3]; [23],0
same,"Plant response rating, Ryegrass, Italian",[3]; [24],0
same,"Plant response rating, Surinam Grass",[4]; [18],75
same,"Plant response rating, Surinam Grass",[4]; [19],85
same,Surinam Grass plant response rating (0 to 100 scale),[4]; [20],90
same,"Plant response rating, Surinam Grass",[4]; [21],100
same,"Plant response rating, Surinam Grass",[4]; [22],80
same,"Plant response rating, Surinam Grass",[4]; [23],100
same,"Plant response rating, Surinam Grass",[4]; [24],100
same,"Plant response rating, Blackgrass",[5]; [18],0
same,"Plant response rating, Blackgrass",[5]; [19],0
same,Blackgrass plant response rating (0 to 100 scale),[5]; [20],0
same,"Plant response rating, Blackgrass",[5]; [21],0
same,"Plant response rating, Blackgrass",[5]; [25],0
same,"Plant response rating, Blackgrass",[5]; [22],0
same,"Plant response rating, Blackgrass",[5]; [23],0
same,"Plant response rating, Blackgrass",[5]; [24],0
same,"Plant response rating, Bromegrass, Downy",[6]; [18],30
same,"Plant response rating, Bromegrass, Downy",[6]; [19],40
same,"Bromegrass, Downy plant response rating (0 to 100 scale)",[6]; [20],55
same,"Plant response rating, Bromegrass, Downy",[6]; [21],70
same,"Plant response rating, Bromegrass, Downy",[6]; [25],0
same,"Plant response rating, Bromegrass, Downy",[6]; [22],0
same,"Plant response rating, Bromegrass, Downy",[6]; [23],0
same,"Plant response rating, Bromegrass, Downy",[6]; [24],0
same,"Plant response rating, Goosegrass",[7]; [18],75
same,"Plant response rating, Goosegrass",[7]; [19],75
same,Goosegrass plant response rating (0 to 100 scale),[7]; [20],80
same,"Plant response rating, Goosegrass",[7]; [21],85
same,"Plant response rating, Goosegrass",[7]; [25],55
same,"Plant response rating, Goosegrass",[7]; [22],95
same,"Plant response rating, Goosegrass",[7]; [23],100
same,"Plant response rating, Goosegrass",[7]; [24],100
same,"Plant response rating, Crabgrass, Large",[8]; [18],95
same,"Plant response rating, Crabgrass, Large",[8]; [19],95
same,"Crabgrass, Large plant response rating (0 to 100 scale)",[8]; [20],95
same,"Plant response rating, Crabgrass, Large",[8]; [21],98
same,"Plant response rating, Crabgrass, Large",[8]; [25],75
same,"Plant response rating, Crabgrass, Large",[8]; [22],98
same,"Plant response rating, Crabgrass, Large",[8]; [23],100
same,"Plant response rating, Crabgrass, Large",[8]; [24],100
same,"Plant response rating, Morningglory",[9]; [18],65
same,"Plant response rating, Morningglory",[9]; [19],70
same,Morningglory plant response rating (0 to 100 scale),[9]; [20],70
same,"Plant response rating, Morningglory",[9]; [21],75
same,"Plant response rating, Morningglory",[9]; [25],0
same,"Plant response rating, Morningglory",[9]; [22],0
same,"Plant response rating, Morningglory",[9]; [23],0
same,"Plant response rating, Morningglory",[9]; [24],0
same,"Plant response rating, Velvetleaf",[10]; [18],75
same,"Plant response rating, Velvetleaf",[10]; [19],95
same,Velvetleaf plant response rating (0 to 100 scale),[10]; [20],98
same,"Plant response rating, Velvetleaf",[10]; [21],98
same,"Plant response rating, Velvetleaf",[10]; [22],70
same,"Plant response rating, Velvetleaf",[10]; [23],70
same,"Plant response rating, Velvetleaf",[10]; [24],85
same,"Plant response rating, Wheat",[11]; [18],0
same,"Plant response rating, Wheat",[11]; [19],5
same,Wheat plant response rating (0 to 100 scale),[11]; [20],5
same,"Plant response rating, Wheat",[11]; [21],10
same,"Plant response rating, Wheat",[11]; [22],0
same,"Plant response rating, Wheat",[11]; [23],0
same,"Plant response rating, Wheat",[11]; [24],0
same,"Plant response rating, Cupgrass, Woolly",[12]; [18],75
same,"Plant response rating, Cupgrass, Woolly",[12]; [19],90
same,"Cupgrass, Woolly plant response rating (0 to 100 scale)",[12]; [20],95
same,"Plant response rating, Cupgrass, Woolly",[12]; [21],95
same,"Plant response rating, Cupgrass, Woolly",[12]; [25],0
same,"Plant response rating, Cupgrass, Woolly",[12]; [22],0
same,"Plant response rating, Cupgrass, Woolly",[12]; [23],0
same,"Plant response rating, Cupgrass, Woolly",[12]; [24],45
same,"Plant response rating, Nutsedge, Yellow",[13]; [18],5
same,"Plant response rating, Nutsedge, Yellow",[13]; [19],5
same,"Nutsedge, Yellow plant response rating (0 to 100 scale)",[13]; [20],10
same,"Plant response rating, Nutsedge, Yellow",[13]; [21],40
same,"Plant response rating, Nutsedge, Yellow",[13]; [25],0
same,"Plant response rating, Nutsedge, Yellow",[13]; [22],0
same,"Plant response rating, Nutsedge, Yellow",[13]; [23],0
same,"Plant response rating, Nutsedge, Yellow",[13]; [24],0
